# Legend:
# [1] = Stability of ^18F-TFB (radio-TLC and anion chromatography HPLC); type: physicochemical; details: NaBF4 stock solution stored for 7 month at room temperature
# Method: The product ^18F-TFB was analyzed for radiochemical purity by both radio-TLC (MeOH, Rf=0.8-0.85) and anion chromatography HPLC with radioactivity detector (Dionex IC-2100, AS19 analytical column: 4.7×150 mm; eluent: 35 mM KOH; sample volume: 25.L; flow rate: 1 mL/min; retention times: 7.6 min for ^18F-TFB, […]). Chemical purity and specific activity were analyzed by anion chromatography HPLC (retention times: 3.5 min for fluoride, 4.3 min for chloride, and 7.6 min for BF4—). Residual organic solvents were analyzed by GC (helium carrier gas flow at 10 cc/min through a MXTWAX column (Restek, Bellefonte, Pa., 0.53 mm ID, 30 m length)).
# After the synthesis, a sample was diluted with water for the analysis. With the eluent of methanol on silica gel plate, purities of >98% were obtained on the radio-TLC scanner.
# ^18F-TFB was prepared and formulated in sterile 0.9% NaCl under cGMP conditions as previously described (12). Decay-corrected radiochemical yields of 32±2% and radiochemical purities (RCPs) >98% were obtained. Specific radioactivity of 2.2±0.9 GBq/μmol was achieved from starting ^18F-fluoride radioactivity of 20-31 GBq. In vitro RCP remained >96% up to 8 h at room temperature.
# NIS = details: reference (21); read-out: IC50 for inhibition of iodine uptake by NIS in thyroid; cited from earlier work
TFB decayed (HPLC) [1],SMILES,IC50 (NIS)
50%,"F[B-](F)(F)F.[Na+] [NaBF4, reference compound]",
,"F[B-](F)(F)F [TFB, tetrafluoroborate]",100 to 1000 nM

# Reference: patent US11532406B2, “High specific activity preparation of F-18 tetrafluoroborate” (Mayo Foundation for Medical Education and Research, priority 2016, dated 2022)
